For this assay, the target named is T1, human FXR (NR1H4) (Homo sapiens, UniProt Q96RI1).
T1 construct: host or cells: CHO (Chinese hamster ovary) cells
T1 sequence (Q96RI1 1-486): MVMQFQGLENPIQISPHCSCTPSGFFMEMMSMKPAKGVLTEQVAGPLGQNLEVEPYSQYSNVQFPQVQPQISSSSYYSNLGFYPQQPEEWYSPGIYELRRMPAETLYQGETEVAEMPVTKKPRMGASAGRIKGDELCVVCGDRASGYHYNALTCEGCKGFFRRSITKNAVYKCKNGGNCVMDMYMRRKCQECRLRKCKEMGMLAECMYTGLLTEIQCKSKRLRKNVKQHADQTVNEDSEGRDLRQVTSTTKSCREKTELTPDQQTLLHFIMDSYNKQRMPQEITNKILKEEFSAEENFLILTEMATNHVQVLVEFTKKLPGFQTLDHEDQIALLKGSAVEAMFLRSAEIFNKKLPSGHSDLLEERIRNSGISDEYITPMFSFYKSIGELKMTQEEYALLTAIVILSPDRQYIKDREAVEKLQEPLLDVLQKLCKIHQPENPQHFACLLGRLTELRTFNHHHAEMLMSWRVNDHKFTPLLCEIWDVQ
Briefly: Human FXR (NR1H4) reporter assay (Gal4 promoter driven transactivation, luciferase). It counts as cell-based. The note with it: for Efficacy (%): normalized to CDCA set as 100%. An excerpt:
Assays Human FXR (NR1H4) Assay Determination of a ligand mediated Gal4 promoter driven transactivation to quantify ligand binding mediated activation of FXR. FXR Reporter Assay kit purchased from Indigo Bioscience (Catalogue number: IB00601) to determine the potency and efficacy of compound developed by Enanta that can induce FXR activation. The principal application of this reporter assay system is to quantify functional activity of human FXR. The assay utilizes non-human mammalian cells, CHO (Chinese hamster ovary) cells engineered to express human NR1H4 protein (referred to as FXR). Reporter cells also incorporate the cDNA encoding beetle luciferase which catalyzes the substrates and yields photon emission. Luminescence intensity of the reaction is quantified using a plate-reading luminometer, Envision. Reporter Cells include the luciferase reporter gene functionally linked to an FXR responsive promoter. Thus, quantifying changes in luciferase expression in the treated reporter cells provides a sensitive surrogate measure of the changes in FXR activity. […] The assay is according to the manufacturer's instructions. In brief, the assay was performed in white, 96 well plates using final volume of 100 ul containing cells with different doses of compounds. Retrieve Reporter Cells from −80° C. storage. Perform a rapid thaw of the frozen cells by transferring a 10 ml volume of 37° C. cell recovery medium into the tube of frozen cells. Recap the tube of Reporter Cells and immediately place it in a 37° C. water bath for 5-10 minutes. Retrieve the tube of Reporter Cell Suspension from the water bath. Sanitize the outside surface of the tube with a 70% alcohol swab, and then transfer it into the cell culture hood. Dispense 90 μl of cell suspension into each well of the 96-well Assay Plate. Transfer the plate into 37° C. incubator, allowing the cells adherent to the bottom of the well. Dilute compounds in Dilution Plate (DP), and administrate to cells at Assay Plate (AP). DMSO content of the samples was kept at 0.2%. Cells were incubated for additional 22 hours before luciferase activities were measured. Thirty minutes before intending to quantify FXR activity, remove Detection Substrate and Detection Buffer from the refrigerator and place them in a low-light area so that they may equilibrate to room temperature. Remove the plate's lid and discard all media contents by ejecting it into an appropriate waste container. Gently tap the inverted plate onto a clean absorbent paper towel to remove residual droplets. Cells will remain tightly adhered to well bottoms. Add 100 μl of luciferase detection reagent to each well of the assay plate. Allow the assay plate to rest at room temperature for at least 5 minutes following the addition of LDR. Set the instrument (Envision) to perform a single 5 second “plate shake” prior to reading the first assay well. Read time may be 0.5 second (500 mSec) per well.
(Reporter assays use an easily measured gene product as a stand-in for the process of interest.)

In the case of `CC[C@H]1[C@@H](O)[C@@H]2[C@H](CC[C@]3(C)[C@@H]([C@H](C)CCc4nnn[nH]4)CC[C@@H]23)[C@@]2(C)CC[C@@H](O)C[C@@H]12` [Example 1], the EC50 fell in the range of 1 to 10 µM and the “Efficacy (%)” value stood at 397%.
The corresponding values for `CC[C@H]1[C@@H](O)[C@@H]2[C@H](CC[C@]3(C)[C@@H]([C@H](C)CCCc4nnn[nH]4)CC[C@@H]23)[C@@]2(C)CC[C@@H](O)C[C@@H]12` [Example 2] are 0.1 to 1 µM and 354%.
As for `CC[C@H]1[C@@H](O)[C@@H]2[C@H](CC[C@]3(C)[C@@H]([C@H](C)Cc4nnn[nH]4)CC[C@@H]23)[C@@]2(C)CC[C@@H](O)C[C@@H]12` [Example 3], the EC50 is 1 to 10 µM and the “Efficacy (%)” value is reported as 192%.
On to `CC[C@H]1[C@@H](O)[C@@H]2[C@H](CC[C@]3(C)[C@@H]([C@H](C)CCCCc4nn[nH]n4)CC[C@@H]23)[C@@]2(C)CC[C@@H](O)C[C@@H]12` [Example 4], for which the EC50 was 0.1 to 1 µM and the “Efficacy (%)” value was 234%.
`CC[C@H]1[C@@H](O)[C@@H]2[C@H](CC[C@]3(C)[C@@H]([C@H](C)CCCCCc4nn[nH]n4)CC[C@@H]23)[C@@]2(C)CC[C@@H](O)C[C@@H]12` [Example 5]: the EC50 lay within 0.1 to 1 µM and the “Efficacy (%)” value was 191%.
Consider `CC[C@H]1[C@@H](O)[C@@H]2[C@H](CC[C@]3(C)[C@@H]([C@H](C)CCC(=O)Nc4nnn[nH]4)CC[C@@H]23)[C@@]2(C)CC[C@@H](O)C[C@@H]12` [Example 6], for which the EC50 was in the range of 1 to 10 µM and the “Efficacy (%)” value came to 105%.

The term EC50 denotes the concentration that produces a half-maximal response. Read a low EC50 as a more potent agent.

The values above are taken from US11578097B2, “Tetrazole derivatives of bile acids as FXR/TGR5 agonists and methods of use thereof” (Enanta Pharmaceuticals, Inc., priority 2014, dated 2023).
